Patent US8802597B2, “Herbicidal pyrimidines” (E I du Pont de Nemours and Company, priority 2003, dated 2014)

Key:
Assay type in all cases: in vivo
[1] = system: bermudagrass (Cynodon dactylon); experiment: Test C pre/postemergence; details: for Bermudagrass plant response rating: scale 0 to 100 (0 no effect, 100 complete control)
Summary of the method: (§1)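 Pre: seeds planted, sprayed same day. Post: 1- to 4-leaf plants (2–18 cm). Formulation: non-phytotoxic solvent + surfactant. Greenhouse 12–14 d; visual % control vs untreated, 0–100.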

[2] = system: common ragweed (Ambrosia elatior); experiment: Test C pre/postemergence; details: for Ragweed plant response rating: scale 0 to 100 (0 no effect, 100 complete control)
Summary of the method: as §1

[3] = system: goosegrass (Eleusine indica); experiment: Test C pre/postemergence; details: for Goosegrass plant response rating: scale 0 to 100 (0 no effect, 100 complete control)
Summary of the method: as §1

[4] = system: pigweed (Amaranthus retroflexus); experiment: Test C pre/postemergence; details: for Pigweed plant response rating: scale 0 to 100 (0 no effect, 100 complete control)
Summary of the method: as §1

[5] = system: velvetleaf (Abutilon theophrasti); experiment: Test C pre/postemergence; details: for Velvetleaf plant response rating: scale 0 to 100 (0 no effect, 100 complete control)
Summary of the method: as §1

[6] = system: woolly cupgrass (Eriochloa villosa); experiment: Test C pre/postemergence; details: for Cupgrass, Woolly plant response rating: scale 0 to 100 (0 no effect, 100 complete control)
Summary of the method: as §1

[7] = system: yellow nutsedge (Cyperus esculentus); experiment: Test C pre/postemergence; details: for Nutsedge, Yellow plant response rating: scale 0 to 100 (0 no effect, 100 complete control)
Summary of the method: as §1

[8] = system: chickweed (Stellaria media); experiment: Test C postemergence; details: for Chickweed plant response rating: scale 0 to 100 (0 no effect, 100 complete control); for Plant response rating, Chickweed: scale 0 to 100
Summary of the method: as §1

[9] = Postemergence, 250 g ai/ha, scale 0 to 100
[10] = Postemergence, 500 g ai/ha, scale 0 to 100
[11] = Preemergence, 62 g ai/ha, scale 0 to 100, 0 no effect, 100 complete control
[12] = Preemergence, 125 g ai/ha, scale 0 to 100
[13] = Preemergence, 250 g ai/ha, scale 0 to 100
[14] = Preemergence, 500 g ai/ha, scale 0 to 100

In the case of `CNN=Cc1nc(C2CC2)nc(N)c1Br` [Compound 49], the “Bermudagrass plant response rating” value ([1]; Postemergence, 62 g ai/ha) is reported as 0, the “Bermudagrass plant response rating” value ([1]; Postemergence, 125 g ai/ha) is reported as 55 and the “Plant response rating, Bermudagrass” value [1, 9] is reported as 55. The “Plant response rating, Bermudagrass” value [1, 10] was 65, the “Plant response rating, Bermudagrass” value [1, 11] was 0 and the “Plant response rating, Bermudagrass” value [1, 12] was 0. For the same compound, the “Plant response rating, Bermudagrass” value [1, 13] was 85, the “Plant response rating, Bermudagrass” value [1, 14] was 95 and the “Ragweed plant response rating” value ([2]; Postemergence, 62 g ai/ha) was 45. The “Ragweed plant response rating” value ([2]; Postemergence, 125 g ai/ha) was 65, the “Plant response rating, Ragweed” value [2, 9] was 75 and the “Plant response rating, Ragweed” value [2, 10] was 90. The “Plant response rating, Ragweed” value [2, 11] was 70, the “Plant response rating, Ragweed” value [2, 12] was 100 and the “Plant response rating, Ragweed” value [2, 13] was 100. The “Plant response rating, Ragweed” value [2, 14] was 100, the “Goosegrass plant response rating” value ([3]; Postemergence, 62 g ai/ha) was 0 and the “Goosegrass plant response rating” value ([3]; Postemergence, 125 g ai/ha) was 0. For the same compound, the “Plant response rating, Goosegrass” value [3, 9] was 20, the “Plant response rating, Goosegrass” value [3, 10] was 25 and the “Plant response rating, Goosegrass” value [3, 11] was 0. For the same compound, the “Plant response rating, Goosegrass” value [3, 12] was 0, the “Plant response rating, Goosegrass” value [3, 13] was 0 and the “Plant response rating, Goosegrass” value [3, 14] was 15. For the same compound, the “Pigweed plant response rating” value ([4]; Postemergence, 62 g ai/ha) was 65, the “Pigweed plant response rating” value ([4]; Postemergence, 125 g ai/ha) was 80 and the “Plant response rating, Pigweed” value [4, 9] was 95. For the same compound, the “Plant response rating, Pigweed” value [4, 10] was 95, the “Plant response rating, Pigweed” value [4, 11] was 85 and the “Plant response rating, Pigweed” value [4, 12] was 90. For the same compound, the “Plant response rating, Pigweed” value [4, 13] was 100, the “Plant response rating, Pigweed” value [4, 14] was 100 and the “Velvetleaf plant response rating” value ([5]; Postemergence, 62 g ai/ha) was 45. For the same compound, the “Velvetleaf plant response rating” value ([5]; Postemergence, 125 g ai/ha) was 70, the “Plant response rating, Velvetleaf” value [5, 9] was 75 and the “Plant response rating, Velvetleaf” value [5, 10] was 80. For the same compound, the “Plant response rating, Velvetleaf” value [5, 11] was 15, the “Plant response rating, Velvetleaf” value [5, 12] was 70 and the “Plant response rating, Velvetleaf” value [5, 13] was 90. The “Plant response rating, Velvetleaf” value [5, 14] was 100, the “Cupgrass, Woolly plant response rating” value ([6]; Postemergence, 62 g ai/ha) was 0 and the “Cupgrass, Woolly plant response rating” value ([6]; Postemergence, 125 g ai/ha) was 15. The “Plant response rating, Cupgrass, Woolly” value [6, 9] was 60, the “Plant response rating, Cupgrass, Woolly” value [6, 10] was 65 and the “Plant response rating, Cupgrass, Woolly” value [6, 11] was 0. The “Plant response rating, Cupgrass, Woolly” value [6, 12] was 0, the “Plant response rating, Cupgrass, Woolly” value [6, 13] was 20 and the “Plant response rating, Cupgrass, Woolly” value [6, 14] was 25. For the same compound, the “Nutsedge, Yellow plant response rating” value ([7]; Postemergence, 62 g ai/ha) was 0, the “Nutsedge, Yellow plant response rating” value ([7]; Postemergence, 125 g ai/ha) was 0 and the “Plant response rating, Nutsedge, Yellow” value [7, 9] was 0. For the same compound, the “Plant response rating, Nutsedge, Yellow” value [7, 10] was 0, the “Plant response rating, Nutsedge, Yellow” value [7, 11] was 0 and the “Plant response rating, Nutsedge, Yellow” value [7, 12] was 0. For the same compound, the “Plant response rating, Nutsedge, Yellow” value [7, 13] was 0, the “Plant response rating, Nutsedge, Yellow” value [7, 14] was 0 and the “Chickweed plant response rating” value ([8]; 62 g ai/ha) was 0. The “Chickweed plant response rating” value ([8]; 125 g ai/ha) was 0, the “Plant response rating, Chickweed” value ([8]; 250 g ai/ha) was 40 and the “Plant response rating, Chickweed” value ([8]; 500 g ai/ha) was 45.

For `CC(=O)NN=Cc1nc(C2CC2)nc(N)c1Br` [Compound 51], the “Bermudagrass plant response rating” value ([1]; Postemergence, 62 g ai/ha) was 0, the “Bermudagrass plant response rating” value ([1]; Postemergence, 125 g ai/ha) was 0 and the “Plant response rating, Bermudagrass” value [1, 9] was 0. For the same compound, the “Plant response rating, Bermudagrass” value [1, 10] was 0, the “Ragweed plant response rating” value ([2]; Postemergence, 62 g ai/ha) was 65 and the “Ragweed plant response rating” value ([2]; Postemergence, 125 g ai/ha) was 80. The “Plant response rating, Ragweed” value [2, 9] was 80, the “Plant response rating, Ragweed” value [2, 10] was 85 and the “Goosegrass plant response rating” value ([3]; Postemergence, 62 g ai/ha) was 0. The “Goosegrass plant response rating” value ([3]; Postemergence, 125 g ai/ha) was 0, the “Plant response rating, Goosegrass” value [3, 9] was 0 and the “Plant response rating, Goosegrass” value [3, 10] was 0. For the same compound, the “Pigweed plant response rating” value ([4]; Postemergence, 62 g ai/ha) was 65, the “Pigweed plant response rating” value ([4]; Postemergence, 125 g ai/ha) was 70 and the “Plant response rating, Pigweed” value [4, 9] was 80. The “Plant response rating, Pigweed” value [4, 10] was 85, the “Velvetleaf plant response rating” value ([5]; Postemergence, 62 g ai/ha) was 0 and the “Velvetleaf plant response rating” value ([5]; Postemergence, 125 g ai/ha) was 20. For the same compound, the “Plant response rating, Velvetleaf” value [5, 9] was 60, the “Plant response rating, Velvetleaf” value [5, 10] was 65 and the “Cupgrass, Woolly plant response rating” value ([6]; Postemergence, 62 g ai/ha) was 0. For the same compound, the “Cupgrass, Woolly plant response rating” value ([6]; Postemergence, 125 g ai/ha) was 0, the “Plant response rating, Cupgrass, Woolly” value [6, 9] was 0 and the “Plant response rating, Cupgrass, Woolly” value [6, 10] was 0. For the same compound, the “Nutsedge, Yellow plant response rating” value ([7]; Postemergence, 62 g ai/ha) was 0, the “Nutsedge, Yellow plant response rating” value ([7]; Postemergence, 125 g ai/ha) was 0 and the “Plant response rating, Nutsedge, Yellow” value [7, 9] was 0. For the same compound, the “Plant response rating, Nutsedge, Yellow” value [7, 10] was 0, the “Chickweed plant response rating” value ([8]; 62 g ai/ha) was 0 and the “Chickweed plant response rating” value ([8]; 125 g ai/ha) was 0. For the same compound, the “Plant response rating, Chickweed” value ([8]; 250 g ai/ha) was 0 and the “Plant response rating, Chickweed” value ([8]; 500 g ai/ha) was 45.
